Several values for one entry are separate records, joined by “and”; a condition that tells them apart may be missing. Equal values may be shown once. Entries after “also recorded” stand apart in the source; their conditions may differ. Read-outs that look alike come from different tables or passages of the source.
Assays:
human cardiomyocytes = assay: Human cardiomyocyte function (video-based contractility analysis); assay type: cell-based; settings: 50 µM
HBV [1] = assay: Antiviral efficacy in nude mice bearing HBV transfected AD38 xenografts; assay type: in vivo; settings: for difference in T/V ratios (HBV titers) versus no-drug / placebo control group: day 45
[2] = 2% FBS (used to measure potency in vitro), 10 µM
[3] = set-up: method as in earlier work; settings: CD-1 mice, cited from earlier work
[4] = Centrifree ultrafiltration device
[5] = humanized mice, 60 mg/kg per day PO for 10 weeks; cited from earlier work
[6] = cynomolgus monkey plasma (1 donor), 10 µM
[7] = Single-dose plasma pharmacokinetics in male cynomolgus monkeys; settings: for AUCtotal: mean n = 3, extrapolated; for t1/2: mean n = 3, terminal
HBV [8] = system: HBV; set-up: method as in earlier work; settings: 2% FBS, cited from earlier work
[9] = cited from earlier work
[10] = human, 10 µM
[11] = eight of the ten mice, GLP-26 55 mg/kg 3 times per week via feeding tube, to day 45
[12] = 1 mg/kg IV infusion, mean n = 3

Q: What does the source list for `COc1nc(N)nc2c1ncn2[C@@H]1O[C@H](COP(=O)(N[C@@H](C)C(=O)OCC(C)(C)C)Oc2cccc3ccccc23)[C@@H](O)[C@@]1(C)O` (stereo partly drawn) [BMS-986094]?
A: resumption of cardiomyocyte beating (human cardiomyocytes): resumed after 8 h with an unstable rhythm; time until cardiomyocyte beating stopped (human cardiomyocytes): ≤ 2 h

Q: For `C=C1[C@H](CO)[C@@H](O)C[C@@H]1n1cnc2c(=O)[nH]c(N)nc21` [ETV, entecavir, reference compound], which “difference in T/V ratios (HBV titers) versus no-drug / placebo control group” value (HBV [1]) is on record?
A: 3 log10

Q: Which results are given for `C#CCNC(=O)C(=O)c1c(C)c(C(=O)Nc2ccc(F)c(F)c2)n(C)c1C` [GLP-26]?
A: percent bound in 2% FBS [2]: 17.9%; terminal t1/2 ([3]; IV 15 mg/kg): 1.6 h; PO bioavailability ([3]; PO 30 mg/kg, IV 15 mg/kg): 61%; terminal t1/2 ([3]; PO 30 mg/kg): > 6 h; difference in T/V ratios (HBV titers) versus no-drug / placebo control group (HBV [1]): 2.5 log10; mean rebound in T/V (HBV [1]; [11]): 13.8 fold; mean rebound in T/V (log10) (HBV [1]; [11]): 1.14 log10; non-specific adsorption [4]: approximately 2.6%; tolerability [5]: safely administered; percent bound in plasma [6]: 86.7%; AUMC [7, 12]: 1058 ng·mL^−1·h^2; CL [7, 12]: 1.106 L·h/kg; Cmax [7, 12]: 2513 ng/mL; MRT [7, 12]: 1.2 h; Tmax [7, 12]: 0.40 h; Vss [7, 12]: 1.065 Lkg^−1; AUCtotal ([7]; 1 mg/kg IV infusion): 986.6 ± 316.5 ng·h/mL and 986.6 ng·h/mL; t1/2 ([7]; 1 mg/kg IV infusion): 0.77 h; Cmax relative to in vitro EC50 versus HBV ([7]; 5 mg/kg PO): ~ 30 times; AUMC ([7]; 5 mg/kg PO, mean n = 3): 7435 ng·mL^−1·h^2; Cmax ([7]; 5 mg/kg PO, mean n = 3): 380.7 ng/mL; MRT ([7]; 5 mg/kg PO, mean n = 3): 4.19 h; Tmax ([7]; 5 mg/kg PO, mean n = 3): 0.67 h; AUCtotal ([7]; 5 mg/kg PO): 1660 ng·h/mL and 1660 ± 530 ng·h/mL; t1/2 ([7]; 5 mg/kg PO): 2.4 h and 2.44 h; signs of toxicity in monkeys ([7]; single IV (1 mg/kg) or PO (5 mg/kg) doses): appeared healthy prior to dosing and throughout the duration of the study; also recorded: No signs of toxicity were observed; in vitro EC50 versus HBV (HBV [8]; converted from nM): ~ 1.1 ng/mL; in vitro EC90 versus HBV (HBV [8]; converted from nM): ~ 11 ng/mL; EC50 (HBV [8]; read-out: in vitro EC50 versus HBV): 3 nM; EC90 (HBV [8]; read-out: in vitro EC90 versus HBV): 30 nM

Q: What does the source list for `Nc1nc(=O)n([C@@H]2CS[C@H](CO)O2)cc1F` [emtricitabine]?
A: percent bound (reported) [9]: < 4%; percent bound in plasma [10]: 0.8%

Q: For `Cc1cccc(C)c1OCC(=O)N[C@@H](Cc1ccccc1)[C@@H](O)C[C@H](Cc1ccccc1)NC(=O)[C@H](C(C)C)N1CCCNC1=O` [lopinavir], which “percent bound in plasma” value [10] is on record?
A: 97.9%

From paper PMC7830897 (Viruses, 2021)
